Values quoted from earlier work as cited in patent publication US7968117B1, “Externally triggered microcapsules” (The United States of America as represented by the …, priority 1994, dated 2011).

Legend:
[1] = dogs' brain, artificially heated region
[2] = preferred value within the printed range

heating temperature of the brain regions showing extravasation of Eb [1] | Compound | HLB (preferred) [2]
greater than 44 °C | Cc1cc(-c2ccc(/N=N/c3ccc4c(S(=O)(=O)[O-])cc(S(=O)(=O)[O-])c(N)c4c3O)c(C)c2)ccc1/N=N/c1ccc2c(S(=O)(=O)[O-])cc(S(=O)(=O)[O-])c(N)c2c1O.[Na+].[Na+].[Na+].[Na+] [free Eb, Evans blue dye] | 
 | CCCCCCCCCCCCCCCCCC(=O)OCC(O)CO (centres unmarked) [Glycerol Monostearate (gms), Glycerol Monostearate] | (3.8 preferred)
